{"source": "patent US20110319416A1", "about": "“Subunit Selective NMDA Receptor Antagonists For The Treatment Of Neurological Conditions” (EMORY UNIVERSITY, priority 2009, published 2011)", "key": {"[1]": {"biological_target": "T1, NR1/NR2D (Rattus norvegicus, UniProt Q62645)", "T1 sequence (Q62645 28-1323, other chains not shown)": "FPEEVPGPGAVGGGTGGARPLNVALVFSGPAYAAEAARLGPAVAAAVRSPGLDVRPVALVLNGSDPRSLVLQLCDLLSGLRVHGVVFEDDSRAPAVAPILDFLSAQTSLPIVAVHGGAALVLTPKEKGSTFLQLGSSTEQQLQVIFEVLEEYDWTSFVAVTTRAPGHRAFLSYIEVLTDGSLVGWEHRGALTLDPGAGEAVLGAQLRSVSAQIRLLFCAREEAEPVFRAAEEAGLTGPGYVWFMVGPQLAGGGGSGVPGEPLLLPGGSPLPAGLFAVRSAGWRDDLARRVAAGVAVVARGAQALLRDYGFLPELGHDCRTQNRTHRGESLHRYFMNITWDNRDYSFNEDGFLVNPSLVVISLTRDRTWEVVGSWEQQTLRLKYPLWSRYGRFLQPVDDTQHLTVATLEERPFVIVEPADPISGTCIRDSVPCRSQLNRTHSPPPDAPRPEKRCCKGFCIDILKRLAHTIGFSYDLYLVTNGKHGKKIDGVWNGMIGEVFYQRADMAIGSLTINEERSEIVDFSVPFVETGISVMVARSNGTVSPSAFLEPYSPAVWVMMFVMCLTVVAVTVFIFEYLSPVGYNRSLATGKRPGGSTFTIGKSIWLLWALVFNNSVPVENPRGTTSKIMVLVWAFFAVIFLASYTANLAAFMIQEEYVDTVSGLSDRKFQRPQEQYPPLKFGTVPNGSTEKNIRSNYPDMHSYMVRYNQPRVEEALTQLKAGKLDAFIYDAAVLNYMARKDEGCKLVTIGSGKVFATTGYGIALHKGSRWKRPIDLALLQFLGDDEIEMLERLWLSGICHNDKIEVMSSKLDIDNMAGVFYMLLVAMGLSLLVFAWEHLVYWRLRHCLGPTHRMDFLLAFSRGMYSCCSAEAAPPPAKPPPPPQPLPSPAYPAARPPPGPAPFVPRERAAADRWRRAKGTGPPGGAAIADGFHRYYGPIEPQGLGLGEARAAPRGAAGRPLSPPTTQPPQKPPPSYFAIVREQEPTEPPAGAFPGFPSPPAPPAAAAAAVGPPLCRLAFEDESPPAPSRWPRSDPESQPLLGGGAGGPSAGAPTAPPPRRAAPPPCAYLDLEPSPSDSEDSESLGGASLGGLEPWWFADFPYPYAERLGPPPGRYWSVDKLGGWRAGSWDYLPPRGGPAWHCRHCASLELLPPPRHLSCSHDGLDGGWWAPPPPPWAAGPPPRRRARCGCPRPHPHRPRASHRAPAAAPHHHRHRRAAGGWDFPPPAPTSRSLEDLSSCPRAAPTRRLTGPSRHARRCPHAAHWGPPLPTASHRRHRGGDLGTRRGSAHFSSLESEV", "assay": "Two electrode voltage clamp, Xenopus oocytes expressing recombinant NR1/NR2D", "format": "cell-based", "procedure": "(§1) Quality of synthesized cRNA was assessed by gel electrophoresis, and quantity was estimated by spectroscopy and gel electrophoresis. Stage V and VI oocytes were surgically removed from the ovaries of large, well-fed and healthy Xenopus laevis anesthetized with 3-amino-benzoic acid ethyl ester (3 gm/l) as previously described. Clusters of isolated oocytes were incubated with 292 U/ml Worthington (Freehold, N.J.) type IV collagenase or 1.3 mg/ml collagenase (Life Technologies, Gaithersburg, MD; 17018-029) for 2 hr in Ca^2+-free solution comprised of (in mM) 115 NaCl, 2.5 KCl, and 10 HEPES, pH 7.5, with slow agitation to remove the follicular cell layer. Oocytes were then washed extensively in the same solution supplemented with 1.8 mM CaCl2 and maintained in Barth's solution comprised of (in mM): 88 NaCl, 1 KCl, 2.4 NaHCO3, 10 HEPES, 0.82 MgSO4, 0.33 Ca(NO3)2, and 0.91 CaCl2 and supplemented with 100 μg/m1 gentamycin, 10 μg/ml streptomycin, and 10 μg/ml penicillin. Oocytes were manually defolliculated and injected within 24 hrs of isolation with 3-5 ng of NR1 subunit cRNA and 7-10 ng of NR2 cRNA subunit in a 50 nl volume, or 5-10 ng of AMPA or kainate receptor cRNAs in a 50 nl volume, and incubated in Barth's solution at 18° C. for 1-7 d. Glass injection pipettes had tip sizes ranging from 10-20 microns, and were backfilled with mineral oil.\n(§2) Two electrode voltage-clamp recordings were made 2-7 days post-injection as previously described. Oocytes were placed in a dual-track plexi-glass recording chamber with a single perfusion line that splits in a Y-configuration to perfuse two oocytes. Dual recordings were made at room temperature (23° C.) using two Warner OC725B two-electrode voltage clamp amplifiers, arranged as recommended by the manufacturer. Glass microelectrodes (1-10 Megaohms) were filled with 300 mM KCl (voltage electrode) or 3 M KCl (current electrode). The bath clamps communicated across silver chloride wires placed into each side of the recording chamber, both of which were assumed to be at a reference potential of 0 mV. Oocytes were perfused with a solution comprised of (in mM) 90 NaCl, 1 KCl, 10 HEPES, and 0.5 BaCl2; pH was adjusted by addition of 1-3 M NaOH of HC1 to 7.4. Oocytes were recorded under voltage clamp at −40 mV. […] In some experiments, 10 μM EDTA was obtained by adding a 1:1000 dilution of 10 mM EDTA, in order to chelate contaminant divalent ions such as Zn^2+. […] Concentration effect curves consisting of 4 to 8 concentrations were obtained in this manner. The baseline leak current at −40 mV was measured before and after recording, and the full recording linearly corrected for any change in leak current. […] Each experiment consisted of recordings from 3 to 10 oocytes obtained from a single frog. Results from multiple experiments were pooled, and the average percent responses at antagonist concentrations were fitted by the equation,\n(§3) Percent Response=(100−minimum)/(1+([conc]/IC50)nH)+minimum"}, "[2]": {"biological_target": "T1, NR1/NR2D", "assay": "Ca2+ fluorescence screening assay in NR1/NR2D expressing BHK cells (96 well)", "format": "cell-based", "design": "expressed in transfected cells; host or cells: BHK-21 cells; NR1 induced by doxycyclin (Tet-On), NR2D constitutive", "conditions": "10 μM test compound, 100 μM glutamate/1 mM glycine"}, "[3]": {"biological_target": "NR2C (Homo sapiens, UniProt Q05586+Q14957)", "conditions": "non-competitive and uncompetitive antagonists; read-out: 2C (μM) IC50; cited from earlier work"}, "[4]": {"biological_target": "NR2D (Homo sapiens, UniProt O15399+Q05586)", "conditions": "non-competitive and uncompetitive antagonists; read-out: 2D (μM) IC50; cited from earlier work"}, "[5]": {"biological_target": "NR1/NR2D (Rattus norvegicus, UniProt P35439+Q62645)", "sequence (Q62645 28-1323, other chains not shown)": "as above", "assay": "Two electrode voltage clamp, Xenopus oocytes expressing recombinant NR1/NR2D", "format": "cell-based", "procedure": "as §1, §2, §3"}, "[6]": {"biological_target": "NR1/NR2B (Rattus norvegicus, UniProt P35439+Q00960)", "assay": "Two electrode voltage clamp, Xenopus oocytes expressing recombinant NR1/NR2B", "format": "cell-based", "procedure": "as §1, §2, §3"}, "[7]": {"biological_target": "NR1/NR2C (Rattus norvegicus, UniProt P35439+Q00961)", "sequence (Q00961 20-1237, other chains not shown)": "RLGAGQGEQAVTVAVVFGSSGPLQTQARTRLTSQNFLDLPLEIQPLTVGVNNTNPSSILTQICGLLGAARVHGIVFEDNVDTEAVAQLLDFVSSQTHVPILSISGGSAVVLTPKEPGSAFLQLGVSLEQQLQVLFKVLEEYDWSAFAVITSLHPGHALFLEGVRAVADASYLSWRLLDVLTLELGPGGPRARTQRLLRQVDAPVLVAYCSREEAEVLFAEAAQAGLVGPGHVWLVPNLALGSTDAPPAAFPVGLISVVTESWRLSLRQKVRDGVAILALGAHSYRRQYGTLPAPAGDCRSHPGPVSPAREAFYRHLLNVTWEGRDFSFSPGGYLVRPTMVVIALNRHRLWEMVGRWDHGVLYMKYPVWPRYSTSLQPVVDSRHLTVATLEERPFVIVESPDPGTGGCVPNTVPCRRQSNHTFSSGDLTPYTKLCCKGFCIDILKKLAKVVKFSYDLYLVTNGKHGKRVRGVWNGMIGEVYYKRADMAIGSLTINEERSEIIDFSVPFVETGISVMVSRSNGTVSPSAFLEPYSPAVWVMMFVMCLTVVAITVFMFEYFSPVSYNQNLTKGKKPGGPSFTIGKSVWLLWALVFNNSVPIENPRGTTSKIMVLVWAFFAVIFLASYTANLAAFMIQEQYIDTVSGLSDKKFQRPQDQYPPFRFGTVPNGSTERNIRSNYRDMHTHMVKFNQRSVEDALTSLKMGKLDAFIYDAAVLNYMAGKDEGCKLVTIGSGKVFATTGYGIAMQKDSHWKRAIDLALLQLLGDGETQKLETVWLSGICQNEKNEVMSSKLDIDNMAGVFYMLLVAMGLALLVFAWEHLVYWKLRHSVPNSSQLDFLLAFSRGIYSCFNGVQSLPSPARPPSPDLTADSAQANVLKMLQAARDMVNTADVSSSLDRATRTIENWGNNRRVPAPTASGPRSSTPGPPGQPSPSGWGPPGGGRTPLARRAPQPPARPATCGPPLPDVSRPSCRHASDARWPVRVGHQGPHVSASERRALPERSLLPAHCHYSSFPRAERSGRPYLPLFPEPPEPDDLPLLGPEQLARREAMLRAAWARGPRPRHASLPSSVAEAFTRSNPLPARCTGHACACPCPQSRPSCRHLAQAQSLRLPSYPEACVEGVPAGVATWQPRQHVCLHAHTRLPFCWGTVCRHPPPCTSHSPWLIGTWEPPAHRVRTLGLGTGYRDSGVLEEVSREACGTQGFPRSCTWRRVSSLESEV", "assay": "Two electrode voltage clamp, Xenopus oocytes expressing recombinant NR1/NR2C", "format": "cell-based", "procedure": "as §1, §2, §3"}, "[8]": {"biological_target": "NR1/NR2A (Rattus norvegicus, UniProt P35439+Q00959)", "sequence (Q00959 23-1464, other chains not shown)": "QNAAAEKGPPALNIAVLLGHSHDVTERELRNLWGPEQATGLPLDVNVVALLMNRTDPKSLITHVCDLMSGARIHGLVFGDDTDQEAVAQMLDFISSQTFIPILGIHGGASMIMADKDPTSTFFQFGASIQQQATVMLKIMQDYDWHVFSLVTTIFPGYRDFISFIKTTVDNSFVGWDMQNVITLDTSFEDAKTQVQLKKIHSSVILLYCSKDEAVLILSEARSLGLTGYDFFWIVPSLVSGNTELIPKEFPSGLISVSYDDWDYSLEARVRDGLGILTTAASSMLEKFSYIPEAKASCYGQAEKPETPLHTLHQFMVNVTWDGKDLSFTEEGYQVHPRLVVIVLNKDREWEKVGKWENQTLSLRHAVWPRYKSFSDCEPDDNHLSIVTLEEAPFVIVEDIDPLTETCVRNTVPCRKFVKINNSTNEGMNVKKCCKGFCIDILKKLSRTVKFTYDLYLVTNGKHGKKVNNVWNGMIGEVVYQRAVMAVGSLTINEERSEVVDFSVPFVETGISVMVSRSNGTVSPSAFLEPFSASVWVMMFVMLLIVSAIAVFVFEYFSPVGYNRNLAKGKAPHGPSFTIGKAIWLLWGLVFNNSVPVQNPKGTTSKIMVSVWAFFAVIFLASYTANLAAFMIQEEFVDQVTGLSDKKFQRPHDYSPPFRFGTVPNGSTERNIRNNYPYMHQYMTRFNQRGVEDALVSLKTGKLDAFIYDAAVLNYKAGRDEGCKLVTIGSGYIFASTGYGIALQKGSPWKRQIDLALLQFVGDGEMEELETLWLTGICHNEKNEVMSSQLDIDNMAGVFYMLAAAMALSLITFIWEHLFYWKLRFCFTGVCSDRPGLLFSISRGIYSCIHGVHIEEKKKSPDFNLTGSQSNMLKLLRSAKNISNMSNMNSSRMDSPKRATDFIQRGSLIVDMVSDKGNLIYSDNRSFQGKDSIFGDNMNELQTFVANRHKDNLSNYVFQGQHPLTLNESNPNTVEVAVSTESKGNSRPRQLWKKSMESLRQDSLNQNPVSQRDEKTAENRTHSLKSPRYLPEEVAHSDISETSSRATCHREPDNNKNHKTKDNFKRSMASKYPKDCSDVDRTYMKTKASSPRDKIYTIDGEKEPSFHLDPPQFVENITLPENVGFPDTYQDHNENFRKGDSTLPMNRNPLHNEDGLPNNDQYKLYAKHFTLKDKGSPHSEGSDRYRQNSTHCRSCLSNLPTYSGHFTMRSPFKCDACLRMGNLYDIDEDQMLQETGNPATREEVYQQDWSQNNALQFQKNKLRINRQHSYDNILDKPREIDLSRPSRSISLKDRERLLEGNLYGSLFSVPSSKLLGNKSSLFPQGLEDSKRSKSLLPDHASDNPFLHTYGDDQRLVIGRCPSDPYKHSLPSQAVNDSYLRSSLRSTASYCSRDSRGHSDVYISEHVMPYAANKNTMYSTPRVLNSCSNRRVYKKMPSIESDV", "assay": "Two electrode voltage clamp, Xenopus oocytes expressing recombinant NR1/NR2A", "format": "cell-based", "procedure": "as §1, §2, §3"}, "[9]": {"biological_target": "GluR1 (Rattus norvegicus, UniProt P19490)", "sequence (P19490 19-907)": "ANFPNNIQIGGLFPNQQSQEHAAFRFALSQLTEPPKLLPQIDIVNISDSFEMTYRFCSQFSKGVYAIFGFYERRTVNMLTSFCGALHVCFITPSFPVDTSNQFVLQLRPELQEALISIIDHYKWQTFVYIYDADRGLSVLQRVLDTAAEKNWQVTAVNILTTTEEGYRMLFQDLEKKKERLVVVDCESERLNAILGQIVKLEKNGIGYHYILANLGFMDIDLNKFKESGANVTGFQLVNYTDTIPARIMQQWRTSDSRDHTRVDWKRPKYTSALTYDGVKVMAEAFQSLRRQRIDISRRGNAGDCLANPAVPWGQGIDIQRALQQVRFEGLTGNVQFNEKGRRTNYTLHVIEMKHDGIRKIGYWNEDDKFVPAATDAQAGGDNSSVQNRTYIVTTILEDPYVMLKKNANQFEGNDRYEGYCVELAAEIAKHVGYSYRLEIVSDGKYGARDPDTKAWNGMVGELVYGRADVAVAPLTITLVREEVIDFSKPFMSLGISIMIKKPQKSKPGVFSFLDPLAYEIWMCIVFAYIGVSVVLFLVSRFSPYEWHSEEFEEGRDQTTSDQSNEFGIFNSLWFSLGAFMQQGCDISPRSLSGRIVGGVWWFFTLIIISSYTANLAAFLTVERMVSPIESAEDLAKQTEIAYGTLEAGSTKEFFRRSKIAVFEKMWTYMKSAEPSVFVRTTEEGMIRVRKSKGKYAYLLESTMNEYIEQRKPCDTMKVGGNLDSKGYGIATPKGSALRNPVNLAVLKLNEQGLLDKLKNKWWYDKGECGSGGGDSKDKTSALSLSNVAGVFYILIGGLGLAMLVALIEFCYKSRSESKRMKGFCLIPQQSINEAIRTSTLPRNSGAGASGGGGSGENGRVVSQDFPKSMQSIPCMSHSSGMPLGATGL", "assay": "Two electrode voltage clamp, Xenopus oocytes expressing GluR1", "format": "cell-based", "conditions": "for remaining activity at 100 µM: read-out: GluR1 percent effect at the maximum tested concentration", "procedure": "as §1, §2, §3"}, "[10]": {"biological_target": "NR2B (Homo sapiens, UniProt Q05586+Q13224)", "conditions": "non-competitive and uncompetitive antagonists; read-out: 2B (μM) IC50; cited from earlier work"}, "[11]": {"biological_target": "NR1/NR2C (Rattus norvegicus, UniProt Q00961)", "sequence (Q00961 20-1237, other chains not shown)": "as the sequence (Q00961 20-1237, other chains not shown) above", "assay": "Two electrode voltage clamp, Xenopus oocytes expressing recombinant NR1/NR2C", "format": "cell-based", "conditions": "logistic fit, minimum forced to 0; read-out: 2C IC50", "procedure": "as §1, §2, §3"}, "[12]": {"conditions": "logistic fit, minimum forced to 0, read-out: 2D IC50"}}, "note": "pIC50: −log10 of the molar value. Like-named read-outs stand apart in the source and are kept apart here."}
{"compound": "CC(=O)N1N=C(c2c(-c3ccccc3)c3cc(C)ccc3[nH]c2=O)CC1c1ccc(Br)cc1", "note": "(stereo not shown) [compound 1250]", "values": [{"measurement": "2D percent response at the maximum tested concentration", "setting": "[1]", "result": 81, "unit": "% at 30 μM"}]}
{"compound": "C[C@]12N[C@H](Cc3ccccc31)c1ccccc12", "note": "[(—)MK-801]", "values": [{"measurement": "identification in test screen of NR1/NR2D expressing BHK cells", "setting": "[2]", "result": "successfully identified"}, {"measurement": "IC50", "setting": "[3]", "result": 0.04, "unit": "µM"}, {"measurement": "IC50", "setting": "[4]", "result": 0.17, "unit": "µM"}]}
{"compound": "CCN(CC)C(=O)Oc1ccc(C(=O)Nc2cccc3ccccc23)cc1", "note": "[1063-2]", "values": [{"measurement": "pIC50", "setting": "[5]", "result": 5.40}, {"measurement": "pIC50", "setting": "[6]", "result": 3.85}, {"measurement": "pIC50", "setting": "[7]", "result": 5.22}, {"measurement": "pIC50", "setting": "[8]", "result": 3.36}, {"measurement": "remaining activity at 100 µM", "setting": "[9]", "result": 118, "unit": "%"}]}
{"compound": "(+)MK-801", "values": [{"measurement": "identification in test screen of NR1/NR2D expressing BHK cells", "setting": "[2]", "result": "successfully identified"}]}
{"compound": "CCc1cccc(N(C)C(N)=Nc2cccc3ccccc23)c1", "note": "[CNS-1102]", "values": [{"measurement": "identification in test screen of NR1/NR2D expressing BHK cells", "setting": "[2]", "result": "successfully identified"}]}
{"compound": "C=CCN1CCC2(C)c3cc(O)ccc3CC1C2C", "note": "(stereo not shown) [N-allylnormetazoline]", "values": [{"measurement": "identification in test screen of NR1/NR2D expressing BHK cells", "setting": "[2]", "result": "successfully identified"}]}
{"compound": "N=C(N)c1ccc(OCCCCCOc2ccc(C(=N)N)cc2)cc1", "note": "[Pentamidine]", "values": [{"measurement": "IC50", "setting": "[10]", "result": 1.5, "unit": "µM"}]}
{"compound": "CC(C)N(C(=O)Oc1ccc(C(=O)Oc2ccc3cccc(N)c3c2)cc1)C(C)C", "note": "[1063-13]", "values": [{"measurement": "pIC50", "setting": "[5]", "result": 4.26}, {"measurement": "remaining activity at 100 µM", "setting": "[6]; read-out: 2B percent effect at the maximum tested concentration", "result": 84, "unit": "%"}, {"measurement": "pIC50", "setting": "[7]", "result": 3.41}, {"measurement": "remaining activity at 100 µM", "setting": "[8]; read-out: 2A percent effect at the maximum tested concentration", "result": 89, "unit": "%"}, {"measurement": "remaining activity at 100 µM", "setting": "[9]", "result": 117, "unit": "%"}]}
{"compound": "O=c1[nH]c2ccc(Cl)cc2c(-c2ccccc2)c1C1=NNC(c2ccc(Br)cc2)C1", "note": "(stereo not shown) [compound 1249]", "values": [{"measurement": "2D percent response at the maximum tested concentration", "setting": "[1]", "result": 79, "unit": "% at 30 μM"}]}
{"compound": "Cc1ccc2[nH]c(=O)c(C3=NN(C(=O)CCC(=O)O)C(c4ccc(Br)cc4)C3)c(-c3ccccc3)c2c1", "note": "(stereo not shown) [compound 1105]", "values": [{"measurement": "pIC50", "setting": "[5]; [12]", "result": 5.52}, {"measurement": "pIC50", "setting": "[1]; [12]", "result": 5.52}, {"measurement": "pIC50", "setting": "[6]; logistic fit, minimum forced to 0, read-out: 2B IC50", "result": 4.13}, {"measurement": "pIC50", "setting": "[11]", "result": 5.15}, {"measurement": "pIC50", "setting": "[7]; logistic fit, minimum forced to 0, read-out: 2C IC50", "result": 5.15}, {"measurement": "pIC50", "setting": "[8]; logistic fit, minimum forced to 0, read-out: 2A IC50", "result": 3.66}, {"measurement": "pIC50", "setting": "[9]; logistic fit, minimum forced to 0", "result": 3.96}]}
{"compound": "COc1ccc(C2CC(c3c(-c4ccccc4)c4cc(Br)ccc4[nH]c3=O)=NN2C(=O)CCC(=O)O)cc1", "note": "(stereo not shown) [compound 1128]", "values": [{"measurement": "2D percent response at the maximum tested concentration", "setting": "[1]; at 100 μM", "result": 90, "unit": "% at 100 μM"}]}
{"compound": "CC(C)N(C(=O)Oc1ccc(C(=O)Nc2cccc3ccccc23)cc1)C(C)C", "note": "[1063-4]", "values": [{"measurement": "pIC50", "setting": "[5]", "result": 5.30}, {"measurement": "pIC50", "setting": "[6]", "result": 3.80}, {"measurement": "pIC50", "setting": "[7]", "result": 5.10}, {"measurement": "pIC50", "setting": "[8]", "result": 3.06}, {"measurement": "remaining activity at 100 µM", "setting": "[9]", "result": 130, "unit": "%"}]}
{"compound": "CCN(CC)C(=O)Oc1ccc(C(=O)Nc2cccc3cc[nH]c23)cc1", "note": "[1063-20]", "values": [{"measurement": "pIC50", "setting": "[5]", "result": 5.52}, {"measurement": "pIC50", "setting": "[6]", "result": 3.03}, {"measurement": "pIC50", "setting": "[7]", "result": 5.30}, {"measurement": "pIC50", "setting": "[8]", "result": 2.62}, {"measurement": "remaining activity at 100 µM", "setting": "[9]", "result": 92, "unit": "%"}]}
